# According to ChEMBL document CHEMBL3885881, “DrugMatrix”:
# Species on record: Rattus norvegicus
# Experiment: DrugMatrix - Regimen: Daily Repeat
# Assay type: toxicity, organism-based, Sprague-Dawley
# Set-up: regimen Daily Repeat, gender Male, age 6-8 weeks
# Details: in vivo, po, route oral GAVAGE, vehicle .5 % CMC; for ABSOLUTE BASOPHIL / ABSOLUTE EOSINOPHIL / ABSOLUTE LYMPHOCYTE / ABSOLUTE MONOCYTE / ABSOLUTE SEGMENTED NEUTROPHIL / BASOPHIL / EOSINOPHIL / ERYTHROCYTE COUNT / HEMATOCRIT / HEMOGLOBIN / LEUKOCYTE COUNT / LYMPHOCYTE / MEAN CORPUSCULAR HEMOGLOBIN / MEAN CORPUSCULAR VOLUME / MONOCYTE / NEUTROPHIL / NUCLEATED RED BLOOD CELLS / PLATELET COUNT: tissue Blood; for ALANINE AMINOTRANSFERASE / ALBUMIN / ALKALINE PHOSPHATASE / ASPARTATE AMINOTRANSFERASE / BLOOD UREA NITROGEN / CARBON DIOXIDE / CHLORIDE / CHOLESTEROL / CREATINE PHOSPHOKINASE / CREATININE / GLUCOSE / LACTATE DEHYDROGENASE / LIPASE / PHOSPHORUS / POTASSIUM / SODIUM / TOTAL BILIRUBIN / TOTAL PROTEIN / URIC ACID: tissue Plasma
# [1] = 68 mg/kg, 72 h, dose level Low, time 3 day
# [2] = 68 mg/kg, 120 h, dose level Low, time 5 day
# [3] = 750 mg/kg, 72 h, dose level High, time 3 day
# [4] = 750 mg/kg, 120 h, dose level High, time 5 day
structure (smiles),measurement,setting,value
C(=C\c1ccccc1)/CN1CCN(C(c2ccccc2)c2ccccc2)CC1 [CINNARIZINE],ABSOLUTE BASOPHIL,[1],0 CELLS/uL
same,ABSOLUTE EOSINOPHIL,[1],0 CELLS/uL
same,ABSOLUTE LYMPHOCYTE,[1],14250 CELLS/uL
same,ABSOLUTE MONOCYTE,[1],268.67 CELLS/uL
same,ABSOLUTE SEGMENTED NEUTROPHIL,[1],1614.67 CELLS/uL
same,BASOPHIL,[1],0%
same,EOSINOPHIL,[1],0%
same,ERYTHROCYTE COUNT,[1],5.37 x10E6/uL
same,HEMATOCRIT,[1],33.93%
same,HEMOGLOBIN,[1],12.87 G/DL
same,LEUKOCYTE COUNT,[1],16.13 x10E3/uL
same,LYMPHOCYTE,[1],88.33%
same,MEAN CORPUSCULAR HEMOGLOBIN,[1],24 pg
same,MEAN CORPUSCULAR VOLUME,[1],63.2 fL
same,MONOCYTE,[1],1.67%
same,NEUTROPHIL,[1],10%
same,NUCLEATED RED BLOOD CELLS,[1],0 /100WBC
same,PLATELET COUNT,[1],1225 x10E3/uL
same,ALANINE AMINOTRANSFERASE,[1],45.33 u/L
same,ALBUMIN,[1],4.37 G/DL
same,ALKALINE PHOSPHATASE,[1],323 u/L
same,ASPARTATE AMINOTRANSFERASE,[1],68.67 u/L
same,BLOOD UREA NITROGEN,[1],15.33 mg/dL
same,CARBON DIOXIDE,[1],24.33 mmol/L
same,CHLORIDE,[1],102 MEQ/L
same,CHOLESTEROL,[1],67.33 mg/dL
same,CREATINE PHOSPHOKINASE,[1],220.67 u/L
same,CREATININE,[1],0.17 mg/dL
same,GLUCOSE,[1],136.33 mg/dL
same,LACTATE DEHYDROGENASE,[1],186 u/L
same,LIPASE,[1],9 u/L
same,PHOSPHORUS,[1],11.57 mg/dL
same,POTASSIUM,[1],6.72 MEQ/L
same,SODIUM,[1],145.13 MEQ/L
same,TOTAL BILIRUBIN,[1],0.2 mg/dL
same,TOTAL PROTEIN,[1],5.33 G/DL
same,URIC ACID,[1],1.7 mg/dL
same,ABSOLUTE BASOPHIL,[2],0 CELLS/uL
same,ABSOLUTE EOSINOPHIL,[2],62.67 CELLS/uL
same,ABSOLUTE LYMPHOCYTE,[2],17347 CELLS/uL
same,ABSOLUTE MONOCYTE,[2],686 CELLS/uL
same,ABSOLUTE SEGMENTED NEUTROPHIL,[2],2204.33 CELLS/uL
same,BASOPHIL,[2],0%
same,EOSINOPHIL,[2],0.33%
same,ERYTHROCYTE COUNT,[2],5.91 x10E6/uL
same,HEMATOCRIT,[2],36.67%
same,HEMOGLOBIN,[2],13.63 G/DL
same,LEUKOCYTE COUNT,[2],20.3 x10E3/uL
same,LYMPHOCYTE,[2],85.33%
same,MEAN CORPUSCULAR HEMOGLOBIN,[2],23.13 pg
same,MEAN CORPUSCULAR VOLUME,[2],62.13 fL
same,MONOCYTE,[2],3.33%
same,NEUTROPHIL,[2],11%
same,NUCLEATED RED BLOOD CELLS,[2],0 /100WBC
same,PLATELET COUNT,[2],1382.33 x10E3/uL
same,ALANINE AMINOTRANSFERASE,[2],44 u/L
same,ALBUMIN,[2],4.3 G/DL
same,ALKALINE PHOSPHATASE,[2],307 u/L
same,ASPARTATE AMINOTRANSFERASE,[2],78.33 u/L
same,BLOOD UREA NITROGEN,[2],21.67 mg/dL
same,CARBON DIOXIDE,[2],26 mmol/L
same,CHLORIDE,[2],107.33 MEQ/L
same,CHOLESTEROL,[2],53.33 mg/dL
same,CREATINE PHOSPHOKINASE,[2],288.33 u/L
same,CREATININE,[2],0.19 mg/dL
same,GLUCOSE,[2],133 mg/dL
same,LACTATE DEHYDROGENASE,[2],263 u/L
same,LIPASE,[2],8.67 u/L
same,PHOSPHORUS,[2],11.3 mg/dL
same,POTASSIUM,[2],6.89 MEQ/L
same,SODIUM,[2],145.37 MEQ/L
same,TOTAL BILIRUBIN,[2],0.17 mg/dL
same,TOTAL PROTEIN,[2],6.13 G/DL
same,URIC ACID,[2],1.5 mg/dL
same,ABSOLUTE BASOPHIL,[3],0 CELLS/uL
same,ABSOLUTE EOSINOPHIL,[3],121.67 CELLS/uL
same,ABSOLUTE LYMPHOCYTE,[3],10962.67 CELLS/uL
same,ABSOLUTE MONOCYTE,[3],242 CELLS/uL
same,ABSOLUTE SEGMENTED NEUTROPHIL,[3],773.67 CELLS/uL
same,BASOPHIL,[3],0%
same,EOSINOPHIL,[3],1%
same,ERYTHROCYTE COUNT,[3],6.6 x10E6/uL
same,HEMATOCRIT,[3],41.67%
same,HEMOGLOBIN,[3],15.33 G/DL
same,LEUKOCYTE COUNT,[3],12.1 x10E3/uL
same,LYMPHOCYTE,[3],90.67%
same,MEAN CORPUSCULAR HEMOGLOBIN,[3],23.23 pg
same,MEAN CORPUSCULAR VOLUME,[3],63.07 fL
same,MONOCYTE,[3],2%
same,NEUTROPHIL,[3],6.33%
same,NUCLEATED RED BLOOD CELLS,[3],0 /100WBC
same,PLATELET COUNT,[3],1456.67 x10E3/uL
same,ALANINE AMINOTRANSFERASE,[3],52.33 u/L
same,ALBUMIN,[3],4.3 G/DL
same,ALKALINE PHOSPHATASE,[3],423.33 u/L
same,ASPARTATE AMINOTRANSFERASE,[3],79.33 u/L
same,BLOOD UREA NITROGEN,[3],19 mg/dL
same,CARBON DIOXIDE,[3],26.67 mmol/L
same,CHLORIDE,[3],99.33 MEQ/L
same,CHOLESTEROL,[3],58.67 mg/dL
same,CREATINE PHOSPHOKINASE,[3],294.67 u/L
same,CREATININE,[3],0.19 mg/dL
same,GLUCOSE,[3],138 mg/dL
same,LACTATE DEHYDROGENASE,[3],240.67 u/L
same,LIPASE,[3],10 u/L
same,PHOSPHORUS,[3],11.73 mg/dL
same,POTASSIUM,[3],6.79 MEQ/L
same,SODIUM,[3],141.93 MEQ/L
same,TOTAL BILIRUBIN,[3],0.17 mg/dL
same,TOTAL PROTEIN,[3],6.1 G/DL
same,URIC ACID,[3],1.8 mg/dL
same,ABSOLUTE BASOPHIL,[4],0 CELLS/uL
same,ABSOLUTE EOSINOPHIL,[4],0 CELLS/uL
same,ABSOLUTE LYMPHOCYTE,[4],10935.67 CELLS/uL
same,ABSOLUTE MONOCYTE,[4],287 CELLS/uL
same,ABSOLUTE SEGMENTED NEUTROPHIL,[4],1277.33 CELLS/uL
same,BASOPHIL,[4],0%
same,EOSINOPHIL,[4],0%
same,ERYTHROCYTE COUNT,[4],6.35 x10E6/uL
same,HEMATOCRIT,[4],38.33%
same,HEMOGLOBIN,[4],14.23 G/DL
same,LEUKOCYTE COUNT,[4],12.5 x10E3/uL
same,LYMPHOCYTE,[4],87.67%
same,MEAN CORPUSCULAR HEMOGLOBIN,[4],22.4 pg
same,MEAN CORPUSCULAR VOLUME,[4],60.4 fL
same,MONOCYTE,[4],2.33%
same,NEUTROPHIL,[4],10%
same,NUCLEATED RED BLOOD CELLS,[4],0 /100WBC
same,PLATELET COUNT,[4],1123.67 x10E3/uL
same,ALANINE AMINOTRANSFERASE,[4],56 u/L
same,ALBUMIN,[4],4.1 G/DL
same,ALKALINE PHOSPHATASE,[4],361.67 u/L
same,ASPARTATE AMINOTRANSFERASE,[4],78.67 u/L
same,BLOOD UREA NITROGEN,[4],17.67 mg/dL
same,CARBON DIOXIDE,[4],27 mmol/L
same,CHLORIDE,[4],103.67 MEQ/L
same,CHOLESTEROL,[4],72.33 mg/dL
same,CREATINE PHOSPHOKINASE,[4],366.67 u/L
same,CREATININE,[4],0.16 mg/dL
same,GLUCOSE,[4],155.33 mg/dL
same,LACTATE DEHYDROGENASE,[4],194.67 u/L
same,LIPASE,[4],10 u/L
same,PHOSPHORUS,[4],12.9 mg/dL
same,POTASSIUM,[4],7.06 MEQ/L
same,SODIUM,[4],147.1 MEQ/L
same,TOTAL BILIRUBIN,[4],0.17 mg/dL
same,TOTAL PROTEIN,[4],5.9 G/DL
same,URIC ACID,[4],2 mg/dL
